Data on 25 compounds can be found in paper PMC12087874, “Biaryl Phosphates and Phosphonates as Selective Inhibitors of the Transcription Factor STAT4” (Angewandte Chemie (International Ed. in English), 2025).

“Also recorded” adds a separate entry of the source. Square brackets hold non-standard residues; d marks the D form. Peptide text beside a SMILES is read from it. pY = N[C@@H](Cc1ccc(OP(=O)(O)O)cc1)C(=O)O

Test [1] concerns the target T1, STAT4 (Homo sapiens, UniProt Q14765).
T1 sequence (Q14765 1-748): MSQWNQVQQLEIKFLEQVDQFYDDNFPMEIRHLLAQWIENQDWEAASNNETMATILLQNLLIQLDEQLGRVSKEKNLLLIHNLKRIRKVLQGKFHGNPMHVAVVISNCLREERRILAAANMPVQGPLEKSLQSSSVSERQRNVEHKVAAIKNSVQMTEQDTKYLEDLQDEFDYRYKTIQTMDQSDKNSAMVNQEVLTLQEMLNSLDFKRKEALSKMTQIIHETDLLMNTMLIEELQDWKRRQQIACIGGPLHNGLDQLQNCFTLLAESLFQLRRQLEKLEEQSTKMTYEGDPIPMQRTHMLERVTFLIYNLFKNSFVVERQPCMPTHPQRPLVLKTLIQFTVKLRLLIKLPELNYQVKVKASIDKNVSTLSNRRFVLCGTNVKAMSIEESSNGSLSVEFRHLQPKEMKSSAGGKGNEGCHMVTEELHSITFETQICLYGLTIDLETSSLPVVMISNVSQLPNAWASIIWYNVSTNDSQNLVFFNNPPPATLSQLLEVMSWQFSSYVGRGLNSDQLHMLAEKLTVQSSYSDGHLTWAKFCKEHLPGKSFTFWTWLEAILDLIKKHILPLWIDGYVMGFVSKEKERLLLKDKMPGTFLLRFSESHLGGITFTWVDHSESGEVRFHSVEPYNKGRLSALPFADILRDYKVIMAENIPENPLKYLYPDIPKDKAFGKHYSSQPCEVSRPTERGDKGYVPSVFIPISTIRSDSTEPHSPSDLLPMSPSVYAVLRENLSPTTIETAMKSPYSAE
Kind of test: Competitive fluorescence polarization (FP) assay, STAT4 SH2 domain. Particulars: FP assay; for Ki: tracer 5-carboxyfluorescein-GpYLPQNID-OH, Ki derived from IC50, read-out: STAT4 K i; for Ki / IC50: mean ± SD, n = 3. The format is binding. Here is the method: (§1) Fluorescence polarization assays
(§2) Competitive fluorescence polarization assays, which measure the abilities of test compounds (dissolved in DMSO) to displace a fluorescent-labeled peptide from the SH2 domain of a STAT protein, were carried out essentially as described. Proteins were used at the following final concentrations: 23 nM or 28 nM for STAT4; between 56 nM and 91 nM for STAT1; 107 nM or 110 nM for STAT3; between 131 nM and 177 nM for STAT5a; between 62 nM and 85 nM for STAT5b; and 101 nM or 106 nM for STAT6. These concentrations represent the approximate […]
(§3) dissociation constant for peptide binding of the respective protein batches used in the assays.
(§4) The following peptides were used: 5-carboxyfluorescein-GpYLPQNID-OH for STAT4; 5-carboxyfluorescein-GpYDKPHVL for STAT1; 5-carboxyfluorescein-GpYLPQTV-NH2 for STAT3; 5-carboxyfluorescein-GpYLVLDKW for STAT5a/b, and 5-carboxyfluorescein- […]
(§5) Gp[…]-OH for STAT6. All peptides were used at a final concentration of 10 nM. The buffer consisted of 10 mM Tris (pH 8.0), 50 mM NaCl, 1 mM EDTA, 1 mM DTT, 0 .1 % Nonidet P-40 substitute, and 2 % DMSO. After incubation of protein and test compound for 1 h at room temperature, the fluorescent -labeled peptide was added. Samples were transferred to 384 - well microtiter plates and fluorescence polarization was read after an additional 60 min of incubation time. Measurements were performed in triplicate. Percent binding was calculated based on a logarithmic curve fit using OriginPro 8G software. IC 50 values were converted to Ki-values via the published equation[3] using the corresponding Excel spread sheet […]
(§6) https://websites.umich.edu/~shaomengwanglab/software/calc_ki/index.html .
(§7) Error bars represent standard deviations. Ligand efficiencies (LE) were calculated by the formula LE = -1,37 x log Ki / number of non-hydrogen atoms.[4] […]

Test [2] addresses T1, STAT4. Kind of test: IL-12-induced STAT4 Tyr693 phosphorylation in NK-92 cells (Western blot). In kind it is cell-based. Also noted: utilizing cellular lysates from the STAT4‐expressing natural killer cell line NK‐92; endogenous in cells; host or cells: NK-92 (DSMZ). Here is the method:
NK-92 cells (DSMZ) were cultured in α-MEM containing 12.5% fetal bovine serum (FBS), 12.5% horse serum, 2 mM L-glutamine, penicillin/streptomycin and 50 U/ml IL -2. […]
The components of cell lysates from treated cells, or heat-treated lysates from CETSA, were separated by SDS-PAGE (10%), transferred to nitrocellulose membrane (Bio-Rad) and detected using monoclonal rabbit primary antibodies (Cell Signaling), α-rabbit-HRP secondary antibody (Dako) and Western Lightning Plus chemiluminescence reagent (Perkin Elmer).
Bands were visualized using an ImageQuant system (GE Healthcare) and quantitated using ImageJ software (NIH). […]
The sitting drop was composed of 0.1 µl protein solution and 0.1 µl reservoir solution. Plates were stored at 19°C in a protein […]
In the first set of experiments, w e tried to crystallize STAT4 as a SUMO -STAT4 fusion protein […]
was cleaved off as described above.
Screening for crystallization conditions for tag-free STAT4 was performed both in the absence or presence of 1 equivalent of 6m or 6h. Since the chosen protein concentration of 3.6 mg/ml appeared to be too low, screening was repeated with a higher concentration of 6.4 mg/ml STAT4 for all conditions (corresponding to 100 µM 6m). Both the SUMO-STAT4 and the tag-free STAT4 preferentially precipitated under conditions containing polyethylene glycol. In one set of experiments, we also screened for conditions in the presence of the high-affinity peptide GY(PO3H2)LPQNID adapted from the IL-12 receptor. However, none of the conditions resulted in the growth of STAT4 crystals (Table S4).
For orientation: A western blot detects proteins with antibodies after separation by electrophoresis.

The target of another test is STAT3 (Homo sapiens, UniProt P40763). Kind of test: Competitive fluorescence polarization (FP) assay, STAT3 SH2 domain. The format is binding. The note with it: tracer 5-carboxyfluorescein-GpYLPQTV-NH2, Ki derived from IC50. The protocol: as §1, §2, §3, §4, §5, §6, §7
Sequence of STAT3 (P40763 whole entry, species assumed, the tested form may be a part): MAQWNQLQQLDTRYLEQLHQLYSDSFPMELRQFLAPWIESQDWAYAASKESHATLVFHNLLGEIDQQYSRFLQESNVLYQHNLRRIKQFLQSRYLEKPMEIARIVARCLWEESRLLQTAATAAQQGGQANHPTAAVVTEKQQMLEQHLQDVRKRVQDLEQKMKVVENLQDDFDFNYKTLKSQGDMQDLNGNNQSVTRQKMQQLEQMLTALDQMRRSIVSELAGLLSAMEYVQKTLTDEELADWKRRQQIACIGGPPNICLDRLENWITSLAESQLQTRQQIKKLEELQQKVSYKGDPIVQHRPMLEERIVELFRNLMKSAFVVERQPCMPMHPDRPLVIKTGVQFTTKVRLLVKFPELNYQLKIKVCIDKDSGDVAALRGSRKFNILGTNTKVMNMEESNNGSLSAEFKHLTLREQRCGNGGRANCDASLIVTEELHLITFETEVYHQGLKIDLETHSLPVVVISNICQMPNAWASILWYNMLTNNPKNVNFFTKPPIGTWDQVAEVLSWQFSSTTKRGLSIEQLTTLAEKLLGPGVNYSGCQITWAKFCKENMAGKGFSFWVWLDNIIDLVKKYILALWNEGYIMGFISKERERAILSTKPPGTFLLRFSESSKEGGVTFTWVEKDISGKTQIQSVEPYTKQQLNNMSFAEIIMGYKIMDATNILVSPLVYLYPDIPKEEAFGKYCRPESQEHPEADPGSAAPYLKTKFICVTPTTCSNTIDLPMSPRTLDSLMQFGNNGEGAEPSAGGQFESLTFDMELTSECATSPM
The next test concerns the target T2, STAT1 (Homo sapiens, UniProt P42224).
T2 sequence (P42224 1-750): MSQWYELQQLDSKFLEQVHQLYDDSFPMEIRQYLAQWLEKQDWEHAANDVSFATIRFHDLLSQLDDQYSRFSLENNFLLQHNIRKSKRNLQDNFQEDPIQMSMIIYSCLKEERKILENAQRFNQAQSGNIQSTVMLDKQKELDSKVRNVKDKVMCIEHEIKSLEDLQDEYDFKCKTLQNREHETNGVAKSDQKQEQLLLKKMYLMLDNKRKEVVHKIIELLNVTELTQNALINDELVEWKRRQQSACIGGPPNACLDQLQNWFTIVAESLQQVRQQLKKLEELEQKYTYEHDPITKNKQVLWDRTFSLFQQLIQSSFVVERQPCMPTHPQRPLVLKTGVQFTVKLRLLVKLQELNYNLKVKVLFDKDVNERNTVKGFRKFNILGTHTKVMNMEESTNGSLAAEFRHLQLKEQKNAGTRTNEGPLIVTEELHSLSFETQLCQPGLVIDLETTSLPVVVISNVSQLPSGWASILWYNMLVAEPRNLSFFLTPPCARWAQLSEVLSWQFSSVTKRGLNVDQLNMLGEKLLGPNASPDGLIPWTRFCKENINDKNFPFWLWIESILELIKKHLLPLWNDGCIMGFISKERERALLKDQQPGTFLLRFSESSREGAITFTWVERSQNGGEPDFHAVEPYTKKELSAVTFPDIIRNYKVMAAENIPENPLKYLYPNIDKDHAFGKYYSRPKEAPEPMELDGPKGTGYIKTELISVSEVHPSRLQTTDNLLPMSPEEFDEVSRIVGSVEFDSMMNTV
The test can be described thus: Competitive fluorescence polarization (FP) assay, STAT1 SH2 domain. In kind it is binding. The note with it: tracer 5-carboxyfluorescein-GpYDKPHVL, Ki derived from IC50. The protocol:
as §1, §2, §3, §4, §5, §6, §7
Background: In fluorescence polarisation assays a small probe gives low polarisation when free and higher when bound to something large.

As to `O=P(O)(O)C(F)(F)c1ccc(-c2csc(Cl)c2)cc1F` [Compound 8i], at STAT4 [1], the Ki amounted to 5.5 ± 0.7 µM and the IC50 (commonly the midpoint of a concentration-inhibition curve) turned out to be 12 ± 2 µM.

As to `CC(=O)c1cc(-c2ccc(C(F)(F)P(=O)(O)O)c(F)c2)cs1` [Compound 8h], on STAT4 [1], the Ki was determined as 7.1 ± 0.6 µM and the IC50 came out at 15 ± 1 µM.

Regarding `O=P(O)(O)C(F)(F)c1ccc(-c2ccsc2Cl)cc1F` [Compound 8j], on STAT4 [1], the Ki was determined as 7.3 ± 0.6 µM and the half-inhibitory concentration (IC50) is 15 ± 1 µM.

Turning to `COC(=O)c1ccccc1-c1ccc(OP(=O)(O)O)cc1` [Compound 6a], on STAT4 [1], the Ki worked out at 9.1 ± 0.8 µM and the half-inhibitory concentration (IC50) was found to be 18 ± 2 µM.

As to `O=P(O)(O)Cc1ccc(-c2ccc3ccccc3c2)cc1F` [Compound 7], the inhibition (as a rule, how much of the control response was suppressed) at 100 µM at STAT4 [1] (100 µM, the highest concentration tested) amounted to 33 ± 4%.

In the case of `COc1cc(OC)cc(-c2ccc(OP(=O)(O)O)cc2)c1` [Compound 6e], at STAT4 [1], the Ki is 1.9 ± 0.1 µM and the IC50 was 3.9 ± 0.2 µM.

For `Oc1ccc(-c2ccc3ccccc3c2)cc1F` [Compound 4m], on STAT4 [1] (200 µM), the “STAT4 inhibition at 200 µM” value is “lack of activity; also recorded: no inhibition at 200 µM”.

With `O=P(O)(O)Oc1ccc(-c2ccccc2)cc1Cl` [Compound 6k], at STAT4 [1], the Ki came out at 3.3 ± 1 µM and the IC50 worked out at 7 ± 2 µM.

`CC(C)(C)C(=O)OCOP(=O)(Cc1ccc(-c2ccc3ccccc3c2)cc1F)OCOC(=O)C(C)(C)C` [Compound 10]: the “inhibition of IL‐12‐induced STAT4 Tyr693 phosphorylation” value on STAT4 [2] (2 h, presence of 25% serum) was “inactive; also recorded: does not”; against STAT4 [2] (absence of serum), “still inactive”.

Turning to `O=P(O)(O)Oc1ccc(-c2ccccc2)c(F)c1` [Compound 6i], at STAT4 [1], the Ki came to 3.8 ± 0.1 µM and the IC50 stood at 8.1 ± 0.1 µM.

`O=P(O)(O)C(F)(F)c1ccc(-c2ccoc2)cc1F` [Compound 8b]: at STAT4 [1], the Ki is 39 ± 1 µM and the IC50 came to 83 ± 2 µM.

For `Cc1cscc1-c1ccc(C(F)(F)P(=O)(O)O)c(F)c1` [Compound 8m], on STAT4 [1], the Ki came out at 8.9 ± 0.7 µM and the 50% inhibitory concentration (IC50) was found to be 19 ± 1 µM.

`COc1cc(-c2ccccc2)ccc1OP(=O)(O)O` [Compound 6l]: on STAT4 [1], the Ki is 22 ± 2 µM and the IC50 came to 47 ± 5 µM.

For the compound `NC(=O)c1cc(-c2ccc(C(F)(F)P(=O)(O)O)c(F)c2)cs1` [Compound 8g], at STAT4 [1], the Ki came to 11 ± 2 µM and the IC50 came out at 24 ± 4 µM.

Consider `O=C(O)c1ccccc1-c1ccc(OP(=O)(O)O)cc1` [Compound 6b], for which, on STAT4 [1], the Ki came out at 7.8 ± 0.5 µM and the IC50 stood at 17 ± 1 µM.

Turning to `Cc1sccc1-c1ccc(C(F)(F)P(=O)(O)O)c(F)c1` [Compound 8l], at STAT4 [1], the Ki came to 8.7 ± 0.9 µM and the IC50 is 18 ± 2 µM.

In the case of `O=P(O)(O)Oc1c(F)cc(-c2ccccc2)cc1F` [Compound 6j], at STAT4 [1], the Ki stood at 2 ± 0.1 µM and the half-inhibitory concentration (IC50) came out at 4.3 ± 0.3 µM.

As to `CC(=O)NCc1ccccc1-c1ccc(OP(=O)(O)O)cc1` [Compound 6d], on STAT4 [1], the Ki turned out to be 6.2 ± 0.4 µM and the half-maximal inhibitory concentration (IC50) is 12 ± 1 µM.

With `Cn1cc(-c2ccc(C(F)(F)P(=O)(O)O)c(F)c2)cn1` [Compound 8c], on STAT4 [1], the Ki was 8 ± 0.7 µM and the IC50 was 15 ± 1 µM.

Regarding `O=P(O)(O)Oc1ccc(-c2cccc3ccccc23)cc1` [Compound 6f], at STAT4 [1], the Ki was found to be 0.84 ± 0.08 µM and the IC50 was 1.8 ± 0.2 µM.

Regarding `CC[C@H](C)[C@H](NC(=O)[C@H](CC(N)=O)NC(=O)[C@H](CCC(N)=O)NC(=O)[C@@H]1CCCN1C(=O)[C@H](CC(C)C)NC(=O)[C@H](Cc1ccc(OP(=O)(O)O)cc1)NC(=O)CNC(C)=O)C(=O)N[C@@H](CC(=O)O)C(=O)O` [Ac‐GpYLPQNID, reference compound] (Ac-G[pY]LPQNID-OH), the figures for the Ki at STAT4 [1], at STAT3 and at STAT1 were 0.22 ± 0.02 µM, 240 ± 40 nM and 360 ± 80 nM, respectively.

Consider `COC(=O)c1cc(-c2ccc(C(F)(F)P(=O)(O)O)c(F)c2)cs1` [Compound 8f], for which, at STAT4 [1], the Ki was 4.4 ± 0.1 µM and the IC50 came out at 9.4 ± 0.2 µM.

For `N#Cc1ccccc1-c1ccc(OP(=O)(O)O)cc1` [Compound 6c], at STAT4 [1], the Ki was 2.7 ± 0.3 µM and the half-maximal inhibitory concentration (IC50) came out at 5.2 ± 0.6 µM.

For the compound `O=P(O)(O)C(F)(F)c1ccc(-c2ccsc2)cc1F` [Compound 8e], on STAT4 [1], the Ki was 2.8 ± 0.3 µM and the IC50 is 6 ± 0.6 µM.

As for `O=P(O)(O)C(F)(F)c1ccc(-c2cccs2)cc1F` [Compound 8d], at STAT4 [1], the Ki was found to be 3.6 ± 0.2 µM and the IC50 came to 7.7 ± 0.4 µM.
